Target: T1, human TREK-1 (Homo sapiens, UniProt O95069)
T1 construct: expressed in transfected cells
T1 sequence (O95069 1-426): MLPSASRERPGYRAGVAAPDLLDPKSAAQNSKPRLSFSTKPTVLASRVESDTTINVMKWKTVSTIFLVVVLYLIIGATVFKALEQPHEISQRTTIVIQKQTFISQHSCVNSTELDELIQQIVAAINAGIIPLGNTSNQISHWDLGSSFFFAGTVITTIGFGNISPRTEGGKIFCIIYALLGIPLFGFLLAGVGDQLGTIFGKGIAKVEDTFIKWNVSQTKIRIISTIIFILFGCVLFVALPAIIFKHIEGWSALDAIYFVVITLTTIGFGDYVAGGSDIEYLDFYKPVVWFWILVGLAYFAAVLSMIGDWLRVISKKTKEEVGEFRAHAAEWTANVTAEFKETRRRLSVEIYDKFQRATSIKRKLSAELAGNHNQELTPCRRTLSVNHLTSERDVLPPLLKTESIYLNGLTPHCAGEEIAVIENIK
Experiment: thallium flux assay (TREK1 activation normalized to BL-1249)
Format: cell-based
Conditions: normalized to 10 μM BL-1249, CHO-K1 cells stably expressing human TREK-1; for activation at 10 µM / TREK1 activation RBL-1249 (%): concentration of Example compound 10 μM; for activation at 10 µM / activation at 30 µM: read-out: TREK1 activation RBL-1249 (%); for activation at 30 µM: concentration of Example compound 30 μM
Method: The term “thallium flux assay” herein refers to a fluorescence-based assay used to monitor the activity of TREK channels. Thallium is a congener of potassium that readily fluxes through the pore of TREK channels. Thallium flux is measured using a commercially available, thallium-sensitive fluorescent dye called Thallos. The detail method is described below.
Method 1 (Thallium Flux Assay);
CHO-K1 cells stably expressing human TREK-1 or HEK293 cells stably expressing human TREK-2 are plated in 384-well plates, cultured overnight, loaded with Thallos dye the following day, treated with test compounds for 10 min, and then treated with thallium stimulus buffer to initiate thallium flux. The change in fluorescence at 25 seconds after thallium addition is normalized to baseline fluorescence (fluorescent intensity at 25 sec after Tl^+ addition)/(average of fluorescent intensity at pre-read).

Compound	activation at 10 µM [%]	further results
O=C(NCc1ccc(OC(F)(F)F)cc1)c1ccc(-c2nccs2)cc1 [Example 2-9, 4-(1,3-thiazol-2-yl)-N-+4-(trifluoromethoxy)benzyl+benzamide]	–	TREK1 activation RBL-1249 (%): 25%
O=C(NCc1ccc(OC(F)(F)F)cc1)c1ccc(-c2nnco2)cc1 [Example 2-12, 4-(1,3,4-oxadiazol-2-yl)-N-[4-(trifluoromethoxy)benzyl]benzamide]	29	–
O=C(NCc1ccc(OC(F)(F)F)cc1F)c1ccc(-n2cncn2)cc1 [Example 2-16, N-[2-fluoro-4-(trifluoromethoxy)benzyl]-4-(1H-1,2,4-triazol-1-yl)benzamide]	46	–
O=C(NCc1ccc(OC(F)(F)F)c(F)c1)c1ccc(-c2nc[nH]n2)cc1 [Example 2-22, N-[3-fluoro-4-(trifluoromethoxy)benzyl]-4-(1H-1,2,4-triazol-3-yl)benzamide]	66	–
O=C(NCc1ccc(OC(F)(F)F)cc1F)c1ccc(-c2ncn[nH]2)cc1 [Example 2-24, N-[2-fluoro-4-(trifluoromethoxy)benzyl]-4-(1H-1,2,4-triazol-5-yl)benzamide]	69	–
COc1cc(OC(F)(F)F)ccc1CNC(=O)c1ccc(-c2nc[nH]n2)cc1 [Example 2-25, N-[2-methoxy-4-(trifluoromethoxy)benzyl]-4-(1H-1,2,4-triazol-3-yl)benzamide]	48	–
O=C(NCc1ccc(C(F)(F)F)cc1Cl)c1ccc(-c2cccnc2)cc1 [Example 2-28, N-[2-chloro-4-(trifluoromethyl)benzyl]-4-(3-pyridinyl)benzamide]	22	–
COc1cc(OC(F)(F)F)ccc1CNC(=O)c1ccc(-c2ccccn2)nc1 [Example 2-29]	–	TREK1 activation RBL-1249 (%): 51%
COc1cc(OC(F)(F)F)ccc1CNC(=O)c1ccc(-n2cncn2)nc1 [Example 2-30, N-[2-methoxy-4-(trifluoromethoxy)benzyl]-6-(1H-1,2,4-triazol-1-yl)nicotinamide]	42	–
O=C(NCc1ccc(OC(F)(F)F)cc1)c1nc(-c2ccccn2)cs1 [Example 2-32, 4-(2-pyridinyl)-N-[4-(trifluoromethoxy)benzyl]-1,3-thiazole-2-carboxamide]	–	activation at 30 µM: 38%
Cc1cc(OC(F)(F)F)ccc1CNC(=O)c1ccc(-c2ncn[nH]2)cc1 [Example 2-34, N-[2-methyl-4-(trifluoromethoxy)benzyl]-4-(1H-1,2,4-triazol-5-yl)benzamide]	80	–
O=C(NCc1ccc(C(F)(F)F)cn1)c1ccc(-n2cccn2)cc1 [Example 2-37, 4-(1H-pyrazol-1-yl)-N-{[5-(trifluoromethyl)-2-pyridinyl]methyl}benzamide]	–	activation at 30 µM: 24%
Cc1cc(OC(F)(F)F)ccc1CNC(=O)c1ccc(-n2cccn2)cc1 [Example 2-38, N-[2-methyl-4-(trifluoromethoxy)benzyl]-4-(1H-pyrazol-1-yl)benzamide]	55	–

Further lines, with some results ahead:

activation at 10 µM [%]	Compound	further results
32	O=C(NCc1ccc(OC(F)(F)F)cc1)c1ccc(-c2cnco2)cc1 [Example 2-6, 4-(1,3-oxazol-5-yl)-N-[4-(trifluoromethoxy)benzyl]benzamide]	–
46	O=C(NCc1ccc(OC(F)(F)F)cc1)c1ccc(-c2cnc[nH]2)cc1 [Example 2-10, 4-(1H-imidazol-5-yl)-N-[4-(trifluoromethoxy)benzyl]benzamide]	–
39	O=C(NCc1ccc(SC(F)(F)F)cc1)c1ccc(-n2cncn2)cc1 [Example 2-18, 4-(1H-1,2,4-triazol-1-yl)-N-{4-[(trifluoromethyl)thio]benzyl}benzamide]	–
76	O=C(NCc1ccc(C(F)(F)F)cc1Cl)c1ccc(-c2nc[nH]n2)cc1 [Example 2-26, N-[2-chloro-4-(trifluoromethyl)benzyl]-4-(1H-1,2,4-triazol-3-yl)benzamide]	–
73	O=C(NCc1ccc(OC(F)(F)F)cc1F)c1ccc(-c2ncc[nH]2)cc1 [Example 2-36, N-[2-fluoro-4-(trifluoromethoxy)benzyl]-4-(1H-imidazol-2-yl)benzamide]	–
